# From article PMC8435859 (Frontiers in Cellular and Infection Microbiology, 2021)
# Like-named read-outs stand apart in the source and are kept apart here.
# Columns and labels:
# [1] = system: prolyl oligopeptidase (POP); design: method as in ref Zhou XQ et al., Flavonoids from Scutellaria baicalensis and their bioactivities; details: concentration of 100 microM; ref Zhou XQ et al., Flavonoids from Scutellaria baicalensis and their bioactivities; cited from earlier work
# [2] = system: human adenovirus type 3 (HAdV-3); design: method as in Li M, et al. Neurosci Lett. 2016; details: HAdV-3 in A549 cells; vendor library annotation; ref Li M, et al. Neurosci Lett. 2016; cited from earlier work
# A549 cells = system: A549 cells; design: method as in Li M, et al. Neurosci Lett. 2016; details: vendor library annotation, ref Li M, et al. Neurosci Lett. 2016, read-out: LC50 (the source's name); cited from earlier work
# aldose reductase = details: aldose reductase; vendor library annotation; ref Aida K, et al. Planta Med, 1990; read-out: IC50; cited from earlier work
# [3] = cited from earlier work; for Solubility in water (in words): library annotation
# [4] = system: human tumor cell line panel; design: method as in Huang Y et al., Journal of Natural Products, 1998; details: library annotation, ref Huang Y et al., Journal of Natural Products, 1998; cited from earlier work
# CYP3A = system: CYP3A; design: method as in Wang CP, et al. J Physiol Biochem. 2014 Sep;70(3):735-47; details: ref Wang CP, et al. J Physiol Biochem. 2014 Sep;70(3):735-47; cited from earlier work
# GX_P2V [5] = experiment: microbe, parasite or virus in culture; format: cell-based, Pangolin coronavirus
# SARS-CoV-2 isolate WIV04 = experiment: Anti-SARS-CoV-2 activity in vitro, viral yield in Vero E6 supernatant by qRT-PCR; format: cell-based, Severe acute respiratory syndrome coronavirus 2; details: for SI: CC50/EC50, SARS-CoV-2 WIV04 in Vero E6; for EC50: SARS-CoV-2 WIV04 MOI 0.01, Vero E6, 24 h.p.i., supernatant qRT-PCR
# Text: To verify the drugs screened through the GX_P2V drug screening alternative model, we repeatedly tested the antiviral activity of the above drugs on SARS-CoV-2. In brief, Vero E6 cells were pre-seeded in 48-well plates at a density of 5×10^4 cells/well and continued to be cultured overnight. Two hours before infection, the culture supernatant of Vero E6 cells was discarded and replaced with a DMEM medium containing different concentration gradient drugs. Vero E6 cells were continued to be cultured for 2 hours, which was conducive to the early entry of the drugs into the cells. Vero E6 cells were infected with WIV04 at a MOI=0.01 for 1 h. After discarding the supernatant, the cells were washed twice with DMEM, and the medium was changed to a DMEM medium (10%FBS) containing the corresponding concentration of the drug. After 24 h.p.i, the cell supernatant was collected. According to the manufacturer’s instructions, the viral RNA was extract using Magnetic Bead Virus RNA Extraction Kits (Shanghai Fine Gene Biotech, FG438). The viral yield in the cell supernatant was then quantified by qRT-PCR using HiSxript II One step qRT-PCR SYBRGreen Kit (Vazyme, Nanjing, China).
# GX_P2V NP protein = format: cell-based, Pangolin coronavirus
# [6] = Cytotoxicity, CellTiter-Blue Cell Viability Assay; details: African green monkey
# SARS-CoV-2 = system: SARS-CoV-2; design: method as in Cao et al., 2020; details: SARS-CoV-2 in vitro; ref Cao et al., 2020; cited from earlier work
# GX_P2V [7] = format: cell-based, Pangolin coronavirus
# in vitro = details: African green monkey
# Vero E6 cells = experiment: Cytotoxicity, CellTiter-Blue Cell Viability Assay; details: Vero E6 cells, CellTiter-Blue
# yeast-α-glucosidase = target: yeast-α-glucosidase; design: method as in ref Saw C L L et al., Biopharmaceutics & Drug Disposition, 2014, 34(6):303-311; details: ref Saw C L L et al., Biopharmaceutics & Drug Disposition, 2014, 34(6):303-311, cited from earlier work
# [8] = Pangolin coronavirus, Vero C1008, 72 h
# [9] = Severe acute respiratory syndrome coronavirus 2, Vero C1008, 24 h
smiles,measurement,setting,value
"COc1c(O)cc2oc(-c3ccc(O)cc3)cc(=O)c2c1O [4', 5,7-trihydroxy-6-methoxyflavone]",inhibition of total prolyl oligopeptidase (POP) activity,[1],43%
CC(C)(O)[C@@H]1CC[C@](C)([C@H]2[C@@H](O)C[C@@]3(C)[C@@H]4C[C@H](O[C@@H]5O[C@H](CO)[C@@H](O)[C@H](O)[C@H]5O)[C@H]5C(C)(C)[C@@H](O[C@@H]6OC[C@@H](O)[C@H](O)[C@H]6O)CC[C@@]56C[C@@]46CC[C@]23C)O1 [Astragaloside IV],IC50,[2],23 µM
same,CC50,A549 cells,865 µM
O=C(/C=C/c1ccc(O)cc1)c1ccc(O)cc1O [Isoliquiritigenin],IC50,aldose reductase,0.32 µM
COc1ccc(-c2cc(=O)c3c(O)cc(O[C@@H]4O[C@H](CO)[C@@H](O)[C@H](O)[C@H]4O[C@@H]4O[C@@H](C)[C@H](O)[C@@H](O)[C@H]4O)cc3o2)cc1O [Neodiosmin],aqueous solubility,"[3]; ref Mencherini T, et al. Journal of Agricultural and Food Chemistry, 2013, 61(8):1686-1693","1. Neodiosmin has poor aqueous solubility but exerts a good debittering effect and is a strong antioxidant with potential applications in foods, beverages, and pharmaceutical preparations."
COc1ccc(-c2cc(=O)c3c(OC)c(OC)c(OC)c(OC)c3o2)cc1OC [Nobiletin],solubility in water,"[3]; vendor library annotation, ref Murakami A, et al. Cancer Res, 2000",Nobiletin is a natural polymethoxylated flavone isolated from citrus peels with anti-inflammatory and anti-tumor activities. Nobiletin is practically insoluble (in water) and an extremely weak acidic compound (based on its pKa).
COc1c(O[C@@H]2O[C@H](C(=O)O)[C@@H](O)[C@H](O)[C@H]2O)cc2oc(-c3ccccc3)cc(=O)c2c1O [Oroxylin A 7-O-beta-D-glucuronide],inhibition of total prolyl oligopeptidase (POP) activity,[1],34%
CC(C)C1=CC(=O)[C@](C)([C@H]2[C@H](O)C[C@@]3(C)[C@@H]4CC=C5[C@@H](CC[C@@H](O[C@@H]6OC[C@@H](O)[C@H](O)[C@H]6O[C@@H]6O[C@@H](C)[C@H](O)[C@@H](O)[C@H]6O)C5(C)C)[C@]4(C)C(=O)C[C@]23C)O1 [Picfeltarraenin IA],cytotoxic activity in vitro,[4],1. Picfeltarraenin IB and Picfeltarraenin IA displayes no cytotoxic activity in vitro human tumor cell line panel.
CC(C)C1=CC(=O)[C@@](C)([C@H]2[C@H](O)C[C@@]3(C)[C@@H]4CC=C5[C@@H](CC[C@@H](O[C@@H]6O[C@H](CO)[C@@H](O)[C@H](O)[C@H]6O[C@@H]6O[C@@H](C)[C@H](O)[C@@H](O)[C@H]6O)C5(C)C)[C@]4(C)C(=O)C[C@]23C)O1 [Picfeltarraenin IB],cytotoxic activity in vitro,[4],1. Picfeltarraenin IB and Picfeltarraenin IA displayes no cytotoxic activity in vitro human tumor cell line panel.
COc1cc2c(c(OC)c1OC)-c1c(cc(OC)c(OC)c1OC)C[C@H](C)[C@H](C)C2 [Schizandrin A],IC50,CYP3A,6.6 µM
same,Ki,CYP3A,5.83 µM
C=C1CC[C@@H]2[C@](C)(CO)[C@H](O)CC[C@@]2(C)[C@@H]1C/C=C1/C(=O)OC[C@H]1O [andrographolide],SI,"GX_P2V [5]; CC50/EC50, GX_P2V in Vero E6",14.11
same,EC50,GX_P2V [5]; [8],6.79 µM
same,SI,SARS-CoV-2 isolate WIV04,8.61
same,EC50,SARS-CoV-2 isolate WIV04; [9],11.1 µM
same,expression of viral NP protein,GX_P2V NP protein,achieved the same inhibitory effect
same,CC50,[6],95.8 µM
same,CC50,[6]; Vero E6 cells,95.7 µM
C=C1C(=O)O[C@@]23[C@H]1CC[C@@H](C)[C@@H]2CC[C@@]1(C)O[C@@H]31 [arteannuin B],EC50,GX_P2V [5]; [8],8.84 µM
same,SI,SARS-CoV-2 isolate WIV04,9.72
same,EC50,SARS-CoV-2 isolate WIV04; [9],12 µM
same,expression of viral NP protein,GX_P2V NP protein,achieved the same inhibitory effect
same,EC50,SARS-CoV-2,10.3 ± 1.12 µM
same,CC50,[6],111 µM
same,CC50,[6]; Vero E6 cells,117 µM
"CO[C@H]1O[C@@H]2O[C@@]3(C)CC[C@H]4[C@H](C)CC[C@@H]([C@H]1C)[C@@]24OO3 [artemether, reference compound]",EC50,GX_P2V [5]; [8],3.7 µM
same,stage of action in time-of-addition assay,GX_P2V [7],functioned on both entry and post-entry stages
same,expression of viral NP protein,GX_P2V NP protein,almost completely inhibited
same,CC50,[6]; Vero E6 cells,> 200 µM
"C[C@H]1[C@H](OC(=O)CCC(=O)O)O[C@@H]2O[C@@]3(C)CC[C@H]4[C@H](C)CC[C@@H]1[C@@]24OO3 [artesunate, reference compound]",EC50,GX_P2V [5]; [8],10.1 µM
same,SI,SARS-CoV-2 isolate WIV04,7.84
same,EC50,SARS-CoV-2 isolate WIV04; [9],16.2 µM
same,expression of viral NP protein,GX_P2V NP protein,most viral NP proteins can be inhibited
same,EC50,SARS-CoV-2,13 ± 5.3 µM
same,Solubility in water (in words),"[3]; ref Xu N, et al. Int J Med Sci. 2015, 12(6):524-529.",Artesunate is part of the artemisinin group of drugs that treat malaria. It is a semi-synthetic derivative of artemisinin that is water-soluble and may therefore be given by injection. It is on the World Health Organization's List of Essential Medicines.
same,CC50,[6],127 µM
same,CC50,[6]; Vero E6 cells,127 µM
CCN(CC)CCCC(C)Nc1ccnc2cc(Cl)ccc12 (stereo not shown) [chloroquine],SI,GX_P2V [5],> 3.92
same,EC50,GX_P2V [5]; [8],12.8 µM
same,CC50,in vitro,> 50 µM
COc1cc(O)ccc1/C=C/C(=O)c1ccc(O)cc1 [echinatin],EC50,GX_P2V [5]; [8],20.9 µM
same,SI,SARS-CoV-2 isolate WIV04,15.27
same,EC50,SARS-CoV-2 isolate WIV04; [9],7.86 µM
same,expression of viral NP protein,GX_P2V NP protein,most viral NP proteins can be inhibited
same,CC50,[6],158 µM
same,CC50,[6]; Vero E6 cells,120 µM
CCN(CCO)CCCC(C)Nc1ccnc2cc(Cl)ccc12 (stereo not shown) [hydroxychloroquine],SI,"GX_P2V [5]; CC50/EC50, GX_P2V in Vero E6",9.157
same,EC50,GX_P2V [5]; [8],6.59 µM
same,CC50,[6],60.3 µM
"COc1c(/C=C/C(=O)c2ccc(O)cc2)ccc(O)c1O [licochalcone B, Licochalcone B]",SI,GX_P2V [5],4.28
same,EC50,GX_P2V [5]; read-out: EC50,24.9 µM
same,SI,SARS-CoV-2 isolate WIV04,6.86
same,EC50,SARS-CoV-2 isolate WIV04,15.5 µM
same,expression of viral NP protein,GX_P2V NP protein,most viral NP proteins can be inhibited
same,CC50,Vero E6 cells,106 µM
O=C(/C=C/c1ccc(O)c2c1[C@@H](C(=O)O[C@H](Cc1ccc(O)c(O)c1)C(=O)O)[C@H](c1ccc(O)c(O)c1)O2)O[C@H](Cc1ccc(O)c(O)c1)C(=O)O [lithospermic acid B],Solubility in water (in words),"[3]; ref Wang J, et al. Evidence-Based Complementary and Alternative Medicine, 2013, 2013:1-16.","lithospermic acid B is a water-soluble antioxidant from Salvia extract. It plays significant role of antioxidant effect; antiplatelet aggregation, anticoagulant, and antithrombotic effect"
Cc1cccc(C)c1OCC(=O)N[C@@H](Cc1ccccc1)[C@@H](O)C[C@H](Cc1ccccc1)NC(=O)[C@H](C(C)C)N1CCCNC1=O [lopinavir],SI,"GX_P2V [5]; CC50/EC50, GX_P2V in Vero E6",> 2.13
same,EC50,GX_P2V [5]; [8],11.7 µM
same,CC50,[6],> 25 µM
CCC/C=C1/OC(=O)c2ccccc21 [n-Butylidenephthalide],Ki,"yeast-α-glucosidase; noncompetitive fashion, read-out: K(i), yeast-α-glucosidase",4860 µM
same,IC50,"yeast-α-glucosidase; noncompetitive, read-out: IC(5), inhibition of yeast-α-glucosidase activity",2350 µM
Cc1c(O)cccc1C(=O)N[C@@H](CSc1ccccc1)[C@H](O)CN1C[C@H]2CCCC[C@H]2C[C@H]1C(=O)NC(C)(C)C [nelfinavir],SI,"GX_P2V [5]; CC50/EC50, GX_P2V in Vero E6",5.86
same,EC50,GX_P2V [5]; [8],6.71 µM
same,CC50,[6],39.3 µM
CCC(CC)COC(=O)[C@H](C)N[P@](=O)(OC[C@H]1O[C@@](C#N)(c2ccc3c(N)ncnn23)[C@H](O)[C@@H]1O)Oc1ccccc1 [remdesivir],SI,"GX_P2V [5]; CC50/EC50, GX_P2V in Vero E6",> 33.78
same,EC50,GX_P2V [5]; [8],0.74 µM
same,CC50,[6],> 25 µM
